In ChEMBL document CHEMBL5727696, “Tetrahydroisoquinoline derived PRMT5-inhibitors” (2020):

Assay: Revised Biochemical Assay: Full-length PRMT5 enzyme (NCBI Reference sequence NP_006100.2) was co-expressed with Hiss-MEP50 in insect cells and purified via Nickel immobilized metal affinity and gel filtration chromatography (“the enzyme”).The 6 μL reactions are run in Greiner brand black 384-well low volume assay plates. All reactions contained assay buffer (phosphate buffered saline, 0.01% (v/v) Tween-20, 0.01% (w/v) albumin from chicken egg white, 1 mM Dithiothreitol, 1 μM peptide substrate, 1 μM S-Adenosyl methionine, and 15 ng/reaction enzyme, with the enzyme being omitted from negative control reactions. Compounds were added in a volume of 100 nL from dilution series prepared in DMSO, positive and negative control reactions receiving the same volume DMSO without compound. The plates were sealed with adhesive seals and incubated for 4 hours at 37 degree Celsius. Reaction progress was measured using the Transcreener™ EPIGEN methyltransferase assay (BellBrook Labs, Madison, Wis.) as recommended by the manufacturer. To each reaction 2 μL detection mix were added, containing coupling enzymes, fluorescence polarisation tracer, and AMP antibody. Plates were incubated for 90 minutes before being read on a PerkinElmer EnVision plate reader in fluorescence polarisation mode.

N#Cc1ccc(C(=O)NCCC(O)CN2CCc3ccccc3C2)cc1 (stereo unspecified)
IC50: 3.98 µM
